From ChEMBL document CHEMBL1201862, “PubChem BioAssay data set” (2004)
Activity calls are given as the source filed them.

How the values were obtained:
[1] = target: T1, Nucleotide-binding oligomerization domain-containing protein 2 (Homo sapiens, UniProt Q9HC29); experiment: NOD2 signaling inhibitors, analog potency, SAR follow-up, cell-based, set 3 (AID 2799); format: functional
[2] = target: Tumor necrosis factor (Homo sapiens, UniProt P01375); experiment: TNFa-triggered NF-kB activation inhibitors, SAR follow-up, cell-based, set 3 (AID 2801); format: functional
[3] = target: T2, Interleukin-8 (Homo sapiens, UniProt P10145); experiment: SAR analysis of Tumor necrosis factor alpha (TNF-alpha) induced IL-8 secretion in MCF-7/NOD1 cells - Set 2. [Related pubchem assays (depositor defined):AID1575, AID2250, AID2260]; format: functional, cell-based
T2 sequence (P10145 whole entry, the tested form may be a part): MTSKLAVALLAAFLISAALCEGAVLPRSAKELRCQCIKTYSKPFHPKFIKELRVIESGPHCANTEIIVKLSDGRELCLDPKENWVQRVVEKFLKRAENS

[4] = target: T3, Nucleotide-binding oligomerization domain-containing protein 1 (Homo sapiens, UniProt Q9Y239); experiment: SAR analysis of compounds that inhibit NOD1 - Set 3. [Related pubchem assays (depositor defined):AID1566, AID1575, AID1578, AID1849, AID1852, AID2333, AID2335, AID2466]; format: functional
T3 sequence (Q9Y239 whole entry): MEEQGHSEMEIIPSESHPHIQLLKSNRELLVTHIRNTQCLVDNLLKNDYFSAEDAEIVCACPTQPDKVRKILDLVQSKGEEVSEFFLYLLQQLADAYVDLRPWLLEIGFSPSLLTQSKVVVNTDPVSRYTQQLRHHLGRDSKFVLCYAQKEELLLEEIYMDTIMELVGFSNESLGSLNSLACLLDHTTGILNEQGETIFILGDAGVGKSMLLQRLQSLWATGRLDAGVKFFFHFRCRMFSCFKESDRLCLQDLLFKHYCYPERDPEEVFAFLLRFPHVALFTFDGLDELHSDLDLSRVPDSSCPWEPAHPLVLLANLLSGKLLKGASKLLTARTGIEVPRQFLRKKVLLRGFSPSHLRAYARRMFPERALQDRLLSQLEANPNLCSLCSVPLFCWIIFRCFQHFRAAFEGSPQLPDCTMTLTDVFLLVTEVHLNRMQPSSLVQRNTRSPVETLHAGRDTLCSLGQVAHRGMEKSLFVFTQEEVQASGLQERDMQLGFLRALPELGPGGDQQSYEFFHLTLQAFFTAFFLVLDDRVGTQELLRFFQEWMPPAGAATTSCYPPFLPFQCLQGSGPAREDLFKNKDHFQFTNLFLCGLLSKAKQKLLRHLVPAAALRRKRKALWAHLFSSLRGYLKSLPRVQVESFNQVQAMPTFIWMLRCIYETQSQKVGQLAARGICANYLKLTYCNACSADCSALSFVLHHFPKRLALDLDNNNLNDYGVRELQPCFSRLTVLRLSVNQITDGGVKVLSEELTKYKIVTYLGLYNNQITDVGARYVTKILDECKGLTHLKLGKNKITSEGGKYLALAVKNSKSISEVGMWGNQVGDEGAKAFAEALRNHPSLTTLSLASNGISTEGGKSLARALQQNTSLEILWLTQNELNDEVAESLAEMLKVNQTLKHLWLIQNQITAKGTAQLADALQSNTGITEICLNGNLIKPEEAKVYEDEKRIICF

[5] = target: T4, High affinity choline transporter 1 (Homo sapiens, UniProt Q9GZV3); experiment: CHT inhibitors, dose response, cell-based, 5-point CRC, membrane potential dye (AID 504840); format: functional
T4 sequence (Q9GZV3 whole entry): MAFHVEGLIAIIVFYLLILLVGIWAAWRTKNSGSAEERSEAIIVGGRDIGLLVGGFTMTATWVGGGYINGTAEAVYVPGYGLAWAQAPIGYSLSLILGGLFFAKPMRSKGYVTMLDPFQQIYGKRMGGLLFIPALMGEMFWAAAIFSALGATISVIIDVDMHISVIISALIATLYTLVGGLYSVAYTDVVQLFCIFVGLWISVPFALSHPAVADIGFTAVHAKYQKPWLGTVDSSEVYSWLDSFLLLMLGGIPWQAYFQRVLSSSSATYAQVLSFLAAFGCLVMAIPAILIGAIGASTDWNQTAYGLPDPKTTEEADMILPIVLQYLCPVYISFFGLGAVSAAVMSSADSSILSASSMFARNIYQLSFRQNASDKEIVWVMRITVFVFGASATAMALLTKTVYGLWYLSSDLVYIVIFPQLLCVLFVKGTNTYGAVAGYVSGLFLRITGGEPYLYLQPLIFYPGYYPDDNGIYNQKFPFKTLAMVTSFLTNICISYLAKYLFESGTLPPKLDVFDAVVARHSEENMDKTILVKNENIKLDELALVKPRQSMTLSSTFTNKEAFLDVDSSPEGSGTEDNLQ

[6] = target: T3, Nucleotide-binding oligomerization domain-containing protein 1; experiment: SAR analysis of compounds that inhibit NOD1 - Set 2. [Related pubchem assays (depositor defined):AID1566, AID1575, AID1578, AID1849, AID1852, AID2333, AID2335, AID2798]; format: functional
[7] = target: T1, Nucleotide-binding oligomerization domain-containing protein 2; experiment: NOD2 inhibitors, SAR follow-up, set 2 (AID 2475); format: functional
[8] = target: T2, Interleukin-8; experiment: SAR analysis of GM-Tri-DAP induced IL-8 secretion in MCF-7/NOD1 cells - Set 2. [Related pubchem assays (depositor defined):AID1575, AID1578, AID2333]; format: functional, cell-based
[9] = target: T5, Fatty acid synthase (Homo sapiens, UniProt P49327); experiment: FAS thioesterase domain inhibitors, dose response, biochemical, kinetic fluorescence intensity (AID 624326); format: functional;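 further: rate of fluorescence rise from hydrolysis of a fluorogenic O-methyl fluorescein ester substrate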
T5 sequence (P49327 whole entry, the tested form may be a part): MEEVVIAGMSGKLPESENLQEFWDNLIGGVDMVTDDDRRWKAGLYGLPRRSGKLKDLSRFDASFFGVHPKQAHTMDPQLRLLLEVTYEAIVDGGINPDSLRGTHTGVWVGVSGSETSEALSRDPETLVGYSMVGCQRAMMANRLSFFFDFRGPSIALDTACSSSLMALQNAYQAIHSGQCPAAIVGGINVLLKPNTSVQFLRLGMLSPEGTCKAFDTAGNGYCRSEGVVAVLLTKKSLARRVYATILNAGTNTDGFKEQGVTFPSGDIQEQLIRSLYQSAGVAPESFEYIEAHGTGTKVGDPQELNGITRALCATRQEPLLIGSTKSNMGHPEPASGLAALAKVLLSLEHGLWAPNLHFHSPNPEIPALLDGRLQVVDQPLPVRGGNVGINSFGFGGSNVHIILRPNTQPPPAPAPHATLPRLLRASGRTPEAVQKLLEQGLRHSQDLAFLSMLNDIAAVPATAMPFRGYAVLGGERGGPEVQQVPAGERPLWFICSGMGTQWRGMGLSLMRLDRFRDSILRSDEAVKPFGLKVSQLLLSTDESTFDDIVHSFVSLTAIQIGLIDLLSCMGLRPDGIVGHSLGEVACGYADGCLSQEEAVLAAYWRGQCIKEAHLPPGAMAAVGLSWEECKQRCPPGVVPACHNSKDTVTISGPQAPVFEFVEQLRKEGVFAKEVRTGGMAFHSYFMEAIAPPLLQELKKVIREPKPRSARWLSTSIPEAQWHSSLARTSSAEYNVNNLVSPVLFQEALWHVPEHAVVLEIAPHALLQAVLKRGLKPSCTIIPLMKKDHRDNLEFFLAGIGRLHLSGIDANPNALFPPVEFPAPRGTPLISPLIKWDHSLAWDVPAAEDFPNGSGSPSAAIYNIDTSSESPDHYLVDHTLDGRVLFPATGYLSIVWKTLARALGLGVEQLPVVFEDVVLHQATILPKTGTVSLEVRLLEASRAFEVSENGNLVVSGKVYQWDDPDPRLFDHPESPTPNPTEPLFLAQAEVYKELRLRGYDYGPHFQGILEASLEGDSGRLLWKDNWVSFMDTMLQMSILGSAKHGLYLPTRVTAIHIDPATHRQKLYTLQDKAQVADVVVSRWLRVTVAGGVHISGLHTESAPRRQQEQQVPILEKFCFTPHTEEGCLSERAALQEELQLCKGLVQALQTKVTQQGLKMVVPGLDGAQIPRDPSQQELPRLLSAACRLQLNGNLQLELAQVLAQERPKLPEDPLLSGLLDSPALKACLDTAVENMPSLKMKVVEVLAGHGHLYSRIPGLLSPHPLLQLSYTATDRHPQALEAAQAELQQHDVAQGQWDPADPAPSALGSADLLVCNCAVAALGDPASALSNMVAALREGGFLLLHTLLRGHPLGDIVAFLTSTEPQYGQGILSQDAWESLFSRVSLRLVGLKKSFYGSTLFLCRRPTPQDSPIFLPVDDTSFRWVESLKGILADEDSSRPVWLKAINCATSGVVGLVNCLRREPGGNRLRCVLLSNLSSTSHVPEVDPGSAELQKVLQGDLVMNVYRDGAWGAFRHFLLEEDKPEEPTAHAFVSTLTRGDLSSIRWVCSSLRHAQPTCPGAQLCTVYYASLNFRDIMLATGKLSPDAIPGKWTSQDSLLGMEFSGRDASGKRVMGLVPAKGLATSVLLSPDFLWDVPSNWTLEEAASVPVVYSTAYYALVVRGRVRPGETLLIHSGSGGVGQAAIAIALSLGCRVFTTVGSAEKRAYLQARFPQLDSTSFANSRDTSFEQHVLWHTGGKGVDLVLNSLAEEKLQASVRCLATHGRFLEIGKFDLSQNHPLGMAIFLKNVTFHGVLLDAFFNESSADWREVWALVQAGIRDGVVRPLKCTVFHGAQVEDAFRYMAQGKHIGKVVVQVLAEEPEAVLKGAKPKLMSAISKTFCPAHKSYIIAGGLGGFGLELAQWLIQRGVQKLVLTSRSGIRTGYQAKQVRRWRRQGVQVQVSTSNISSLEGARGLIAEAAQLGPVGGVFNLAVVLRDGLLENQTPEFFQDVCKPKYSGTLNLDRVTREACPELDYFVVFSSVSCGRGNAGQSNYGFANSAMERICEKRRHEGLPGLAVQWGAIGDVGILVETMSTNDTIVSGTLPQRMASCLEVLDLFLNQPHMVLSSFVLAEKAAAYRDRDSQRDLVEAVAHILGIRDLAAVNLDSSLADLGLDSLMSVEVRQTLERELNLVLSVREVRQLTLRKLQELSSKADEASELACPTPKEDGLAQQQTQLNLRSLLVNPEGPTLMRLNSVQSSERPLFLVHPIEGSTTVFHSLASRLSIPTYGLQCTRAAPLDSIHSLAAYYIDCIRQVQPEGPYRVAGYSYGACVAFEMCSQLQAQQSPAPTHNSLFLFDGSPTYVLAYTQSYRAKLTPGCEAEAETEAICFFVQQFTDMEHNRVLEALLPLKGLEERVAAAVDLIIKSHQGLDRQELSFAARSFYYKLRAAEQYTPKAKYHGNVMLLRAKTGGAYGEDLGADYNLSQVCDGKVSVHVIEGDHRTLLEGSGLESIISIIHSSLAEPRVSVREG

[10] = target: T3, Nucleotide-binding oligomerization domain-containing protein 1; experiment: SAR analysis of NF-kappaB dependent luciferase using DAP as an inducer - Set 2. [Related pubchem assays (depositor defined):AID1566, AID1575, AID1578, AID1579, AID1849, AID1852, AID2264]; format: functional
[11] = target: T5, Fatty acid synthase; experiment: FAS thioesterase domain inhibitors, dose response, biochemical, endpoint fluorescence intensity, uHTS hits (AID 624327); format: functional;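 further: fluorescence from hydrolysis of an O-methyl fluorescein acyl ester substrate by the enzyme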
[12] = test system: HEK293; experiment: SAR analysis of compounds that are cytotoxic to HEK293 - Set 2. [Related pubchem assays (depositor defined):AID1575, AID1578, AID1849, AID2001, AID2333, AID2334, AID2335, AID2337, AID2800]; format: functional, cell-based; conditions: Homo sapiens
[13] = test system: HEK293; experiment: SAR analysis of compounds that are cytotoxic to HEK293 - Set 3. [Related pubchem assays (depositor defined):AID1575, AID1578, AID1848, AID1849, AID2001, AID2333, AID2334, AID2335, AID2337, AID2469]; format: functional, cell-based; conditions: Homo sapiens
[14] = target: Dual specificity protein phosphatase 3 (Homo sapiens, UniProt P51452); experiment: SAR VHR1 Fluorescent Assay for In Vitro dose response studies Set 3. [Related pubchem assays (depositor defined):AID1654, AID1661, AID1878]; format: functional
Dual specificity protein phosphatase 3, sequence (P51452 whole entry): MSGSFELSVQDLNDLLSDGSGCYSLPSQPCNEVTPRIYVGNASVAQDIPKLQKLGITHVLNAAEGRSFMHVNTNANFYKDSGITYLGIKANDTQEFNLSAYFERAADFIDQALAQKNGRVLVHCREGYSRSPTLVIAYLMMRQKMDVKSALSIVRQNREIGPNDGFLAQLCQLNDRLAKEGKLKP

[15] = target: UDP-galactopyranose mutase (Mycobacterium tuberculosis, UniProt P9WIQ1); experiment: Inhibitors of Mycobacterium tuberculosis UDP-galactopyranose mutase (UGM) enzyme Measured in Biochemical System Using Plate Reader - 2105-02_Inhibitor_Dose_CherryPick_Activity. [Related pubchem assays (depositor defined):AID504439]
UDP-galactopyranose mutase, sequence (P9WIQ1 whole entry): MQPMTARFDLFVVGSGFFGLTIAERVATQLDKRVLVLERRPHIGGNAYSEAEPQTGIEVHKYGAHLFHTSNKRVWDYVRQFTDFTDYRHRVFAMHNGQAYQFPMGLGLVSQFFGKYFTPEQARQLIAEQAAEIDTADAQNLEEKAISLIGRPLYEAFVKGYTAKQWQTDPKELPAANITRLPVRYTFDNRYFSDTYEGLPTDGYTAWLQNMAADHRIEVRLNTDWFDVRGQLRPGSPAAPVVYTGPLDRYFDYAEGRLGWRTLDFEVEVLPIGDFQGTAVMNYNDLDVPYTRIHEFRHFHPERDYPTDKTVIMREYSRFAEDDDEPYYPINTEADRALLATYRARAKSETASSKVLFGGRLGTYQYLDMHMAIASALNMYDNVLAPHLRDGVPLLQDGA

[16] = target: Cytochrome P450 2D6 (Homo sapiens, UniProt P10635);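 further: CYP2D6 member of a cytochrome P450 panel assay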
[17] = target: Cytochrome P450 2C9 (Homo sapiens, UniProt P11712)
Cytochrome P450 2C9, sequence (P11712 whole entry): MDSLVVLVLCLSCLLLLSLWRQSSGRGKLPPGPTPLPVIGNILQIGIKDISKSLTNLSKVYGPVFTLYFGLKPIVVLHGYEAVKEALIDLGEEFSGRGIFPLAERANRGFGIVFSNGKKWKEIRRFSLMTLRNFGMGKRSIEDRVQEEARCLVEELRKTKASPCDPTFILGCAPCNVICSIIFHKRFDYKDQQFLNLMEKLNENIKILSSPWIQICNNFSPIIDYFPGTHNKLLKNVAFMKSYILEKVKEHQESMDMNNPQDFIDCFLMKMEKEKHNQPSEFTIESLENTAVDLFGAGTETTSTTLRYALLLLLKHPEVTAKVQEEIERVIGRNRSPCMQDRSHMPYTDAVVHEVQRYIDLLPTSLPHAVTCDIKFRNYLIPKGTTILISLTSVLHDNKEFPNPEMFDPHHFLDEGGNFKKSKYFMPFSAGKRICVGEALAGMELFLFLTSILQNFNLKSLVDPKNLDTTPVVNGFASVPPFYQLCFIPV

[18] = target: G-protein coupled receptor 55 (Homo sapiens, UniProt Q9Y2T6); experiment: GPR55 antagonists, SAR follow-up, counter-screen for GPR35 antagonist project, imaging, image-based (AID 2397); format: functional
G-protein coupled receptor 55, sequence (Q9Y2T6 whole entry): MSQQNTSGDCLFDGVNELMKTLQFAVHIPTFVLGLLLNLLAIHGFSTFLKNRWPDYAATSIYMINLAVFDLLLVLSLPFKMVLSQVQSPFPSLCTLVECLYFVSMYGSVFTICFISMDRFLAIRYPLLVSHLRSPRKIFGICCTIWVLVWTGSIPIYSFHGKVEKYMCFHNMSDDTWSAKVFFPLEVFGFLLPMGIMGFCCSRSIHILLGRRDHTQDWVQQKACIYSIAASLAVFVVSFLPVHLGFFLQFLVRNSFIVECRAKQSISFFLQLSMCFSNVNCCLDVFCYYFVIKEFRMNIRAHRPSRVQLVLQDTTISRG

T1 sequence (Q9HC29 whole entry, the tested form may be a part): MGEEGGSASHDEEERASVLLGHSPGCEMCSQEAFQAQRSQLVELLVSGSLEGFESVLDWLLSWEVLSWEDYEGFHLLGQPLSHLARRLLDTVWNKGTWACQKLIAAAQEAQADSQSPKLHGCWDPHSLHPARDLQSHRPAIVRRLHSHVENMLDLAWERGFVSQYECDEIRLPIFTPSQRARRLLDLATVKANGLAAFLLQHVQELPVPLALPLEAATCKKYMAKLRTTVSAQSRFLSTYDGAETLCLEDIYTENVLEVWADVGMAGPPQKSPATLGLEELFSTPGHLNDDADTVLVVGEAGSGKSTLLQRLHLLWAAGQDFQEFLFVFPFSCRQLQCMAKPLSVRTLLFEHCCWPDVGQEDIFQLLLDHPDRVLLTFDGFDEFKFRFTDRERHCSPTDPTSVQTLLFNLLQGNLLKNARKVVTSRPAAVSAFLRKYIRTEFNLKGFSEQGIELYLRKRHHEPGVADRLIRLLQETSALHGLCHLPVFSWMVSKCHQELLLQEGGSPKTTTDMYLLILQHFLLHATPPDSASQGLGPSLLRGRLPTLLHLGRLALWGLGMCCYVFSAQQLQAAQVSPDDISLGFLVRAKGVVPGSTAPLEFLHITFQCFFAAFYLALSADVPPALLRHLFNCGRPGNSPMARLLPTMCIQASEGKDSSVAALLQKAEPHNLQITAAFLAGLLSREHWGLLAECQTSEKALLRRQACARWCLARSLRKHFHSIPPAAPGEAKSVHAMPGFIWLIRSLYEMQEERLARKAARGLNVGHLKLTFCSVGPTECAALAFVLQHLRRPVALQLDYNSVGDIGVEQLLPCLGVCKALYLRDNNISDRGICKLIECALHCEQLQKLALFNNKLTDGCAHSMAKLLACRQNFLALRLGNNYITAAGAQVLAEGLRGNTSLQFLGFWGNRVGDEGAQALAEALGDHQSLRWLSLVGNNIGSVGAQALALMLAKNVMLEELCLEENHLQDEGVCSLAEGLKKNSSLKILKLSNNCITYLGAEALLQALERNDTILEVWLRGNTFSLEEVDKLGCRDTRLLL

CCCCn1c(CN2CCN(c3cccc(Cl)c3)CC2)nc2c1c(=O)n(C)c(=O)n2C
IC50 [1]: 1.41 µM (active)
IC50 [2]: 3.35 µM (active)
IC50 [3]: > 25 µM (inactive)
IC50 [4]: 1.8 µM (active)
IC50 [5]: 15.1 µM (active)
IC50 [6]: 2.18 µM (active)
IC50 [7]: 2.21 µM (active)
IC50 [8]: > 25 µM (inactive)
IC50 [9]: 5.74 µM (active)
IC50 [10]: 8.7 µM (active)
IC50 [11]: 5.07 µM (active)
IC50 [12]: > 20 µM (inactive)
IC50 [13]: > 20 µM (inactive)

Cc1ccc2sc(-c3ccc(NC(=O)c4cc(-n5cnnc5)ccc4Cl)cc3)nc2c1
IC50 [14]: 11.4 µM (active)

CCOC(=O)c1c(O)[n+]([O-])c2ccc(OC)cc2[n+]1[O-]
AC50 [15]: 200 µM (active)

CCOC(=O)COc1c(C=O)cc(Br)cc1OC
AC50 [16]: inconclusive
AC50 [17]: inconclusive

c1ccc(-c2n[n+](-c3ccccc3)c(-c3ccccc3)s2)cc1
IC50 [18]: > 32 µM (inactive)
